What was measured:
Type in all cases: in vivo
Cyperus iria = assay: Preemergence weed control under flooded paddy conditions, CYPIR (Rice Flatsedge); conditions: preemergence weeds, flooded paddy, herbicidal effect rating 0-9, three to four weeks after treatment
[1] = system: Monochoria vaginalis, Presl.; assay: Preemergence weed control under flooded paddy conditions, MOOVA (Monochoria); conditions: preemergence weeds, flooded paddy, herbicidal effect rating 0-9, three to four weeks after treatment
Sagittaria pygmaea, L. = assay: Preemergence weed control under flooded paddy conditions, SAGPY (Arrowhead (Pygmaea)); conditions: preemergence weeds, flooded paddy, herbicidal effect rating 0-9, three to four weeks after treatment
[2] = system: Cyperus serotinus, Rottb.; assay: Preemergence weed control under flooded paddy conditions, CYPSE (Flatsedge); conditions: preemergence weeds, herbicidal effect rating 0-9, three to four weeks after treatment
[3] = system: Echinochloa oryzoides (Ard.) Fritsch.; assay: Preemergence weed control under flooded paddy conditions, ECHORC (Watergrass (Calif.)); conditions: preemergence weeds, flooded paddy, herbicidal effect rating 0-9, three to four weeks after treatment

SMILES | CYPIR (Cyperus iria; 0.0320 kg/ha) | CYPIR (Cyperus iria; 0.0620 kg/ha) | CYPIR (Cyperus iria; 0.1250 kg/ha) | CYPIR (Cyperus iria; 0.2500 kg/ha) | MOOVA ([1]; 0.0320 kg/ha) | MOOVA ([1]; 0.0620 kg/ha) | MOOVA ([1]; 0.1250 kg/ha) | MOOVA ([1]; 0.2500 kg/ha) | SAGPY (Sagittaria pygmaea, L.; 0.0320 kg/ha) | SAGPY (Sagittaria pygmaea, L.; 0.0620 kg/ha) | SAGPY (Sagittaria pygmaea, L.; 0.1250 kg/ha) | SAGPY (Sagittaria pygmaea, L.; 0.2500 kg/ha) | CYPSE ([2]; 0.0320 kg/ha) | CYPSE ([2]; 0.0620 kg/ha) | CYPSE ([2]; 0.1250 kg/ha) | ECHORC ([3]; 0.0320 kg/ha) | ECHORC ([3]; 0.0620 kg/ha) | ECHORC ([3]; 0.1250 kg/ha) | ECHORC ([3]; 0.2500 kg/ha) | CYPSE ([2]; 0.2500 kg/ha)
COC(=O)COc1ccc(C)cc1-c1nsc2cc(Cl)c(-n3c(=O)cc(C(F)(F)F)n(C)c3=O)cc12 [Example 443, Acetic acid, {{2-{6-chloro-5-[3,6-dihydro-3-methyl-2,6-dioxo-4-(trifluoromethyl)-1(2H)-pyrimidinyl]-1,2-benzisothiazol-3-yl}-p-tolyl}oxy}-, methyl ester] | 4.0 | 6.0 | 7.0 | 7.0 | 5.0 | 6.0 | 7.0 | 7.0 | 3.0 | 3.0 | 4.0 | 5.0 | 0.0 | 0.0 | 0.0 | 6.0 | 5.0 | 7.0 | 9.0 | 
Cn1c(C(F)(F)F)cc(=O)n(-c2ccc3snc(C(=O)c4ccccc4)c3c2)c1=O [Example 449, 2,4(1,3H)-Pyrimidinedione, 3-(3-benzoyl-1,2-benzisothiazol-5-yl)-1-methyl-6-(trifluoromethyl)-] | 4.0 | 5.0 | 8.0 | 9.0 | 7.0 | 7.0 | 9.0 | 9.0 | 2.0 | 4.0 | 4.0 | 6.0 | 2.0 |  |  | 5.0 | 7.0 | 9.0 | 9.0 | 4.0
COc1ccc(CC(=O)OCc2nsc3ccc(-n4c(=O)cc(C(F)(F)F)n(C)c4=O)cc23)cc1 [Example 450, 2,4(1H,3H)-Pyrimidinedione, 3-[3-(hydroxymethyl)-1,2-benzisothiazol-5-yl]-1-methyl-6-(trifluoromethyl)-, (p-methoxyphenyl)acetate (ester)] | 6.0 | 7.0 | 9.0 | 9.0 | 7.0 | 7.0 | 9.0 | 9.0 | 5.0 | 5.0 | 6.0 | 9.0 | 0.0 |  |  | 0.0 | 2.0 | 6.0 | 9.0 | 
Cn1c(C(F)(F)F)cc(=O)n(-c2ccc3snc(COC(=O)Cc4cccs4)c3c2)c1=O [Example 451, 2,4(1H,3H)-Pyrimidinedione, 3-[3-(hydroxymethyl)-1,2-benzisothiazol-5-yl]-1-methyl-6-(trifluoromethyl)-, 2-thienylacetate (ester)] | 5.0 | 5.0 | 7.0 | 9.0 | 9.0 | 9.0 | 9.0 | 9.0 | 4.0 | 5.0 | 6.0 | 9.0 |  | 0.0 |  | 0.0 | 0.0 | 6.0 | 7.0 | 0.0
Cn1c(C(F)(F)F)cc(=O)n(-c2ccc3snc(COC(=O)Cc4ccc(Cl)cc4)c3c2)c1=O [Example 452, 2,4(1H,3H)-Pyrimidinedione, 3-[3-(hydroxymethyl)-1,2-benzisothiazol-5-yl]-1-methyl-6-(trifluoromethyl)-, (p-chlorophenyl)acetate (ester)] | 4.0 | 6.0 | 9.0 | 9.0 | 9.0 | 9.0 | 9.0 | 9.0 | 0.0 | 0.0 | 0.0 | 2.0 | 0.0 |  |  | 0.0 | 3.0 | 3.0 | 7.0 | 7.0
